From PubChem BioAssay (NCI)
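Grown in 96-well plates, cells were treated for 48 hours with each compound at five concentrations. Insufficient inhibition: endpoint recorded as highest concentration tested. TGI denotes the concentration required for complete inhibition of growth.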

How the values were obtained:
Assay in all cases: DTP human tumour cell line panel, 48 h
A498 renal = test system: A498 renal
BT-549 breast = test system: BT-549 breast
COLO 205 colon = test system: COLO 205 colon
EKVX NSCLC = test system: EKVX NSCLC
HOP-62 NSCLC = test system: HOP-62 NSCLC
HT29 colon = test system: HT29 colon
IGROV1 ovarian = test system: IGROV1 ovarian
LOX IMVI melanoma = test system: LOX IMVI melanoma
MCF7 breast = test system: MCF7 breast
OVCAR-4 ovarian = test system: OVCAR-4 ovarian
RPMI-8226 leukemia = test system: RPMI-8226 leukemia
RXF 393 renal = test system: RXF 393 renal
SK-MEL-28 melanoma = test system: SK-MEL-28 melanoma
SW-620 colon = test system: SW-620 colon
U251 CNS = test system: U251 CNS
UACC-257 melanoma = test system: UACC-257 melanoma
HCC-2998 colon = test system: HCC-2998 colon
DU-145 prostate = test system: DU-145 prostate

SMILES	TGI (A498 renal) [µM]	TGI (BT-549 breast) [µM]	TGI (COLO 205 colon) [µM]	TGI (EKVX NSCLC) [µM]	TGI (HOP-62 NSCLC) [µM]	TGI (HT29 colon) [µM]	TGI (IGROV1 ovarian) [µM]	TGI (LOX IMVI melanoma) [µM]	TGI (MCF7 breast) [µM]	TGI (OVCAR-4 ovarian) [µM]	TGI (RPMI-8226 leukemia) [µM]	TGI (RXF 393 renal) [µM]	TGI (SK-MEL-28 melanoma) [µM]	TGI (SW-620 colon) [µM]	TGI (U251 CNS) [µM]	TGI (UACC-257 melanoma) [µM]	TGI (HCC-2998 colon) [µM]	TGI (DU-145 prostate) [µM]
c1ccc(C2=Nc3nc4ccccc4n3C(c3ccccc3)C2)cc1 (configuration not stated)	> 100	> 100	> 100	> 100	> 100	> 100	> 100	> 100	> 100	> 100	> 100	> 100	> 100	> 100	> 100	> 100		
Cc1c2c(cc3c1[nH]c1ccccc13)C=NCC2	40.3		22.4	78.9	56.4	31.7	49.5	36.6	8.7	53	51.6	16.4	16.8	27.6	47.3	19.6	46.8	
C=C1C(=O)OC2(C)C3CCC(C3)C12 (configuration not stated)			48.4	> 100	> 100	> 100	> 100	> 100		> 100	> 100		> 100	> 100	> 100		> 100	
COc1ccccc1-c1cc(=O)c2ccccc2[nH]1			> 100	> 100	> 100		> 100	> 100			> 100	> 100	> 100	> 100	> 100	> 100	> 100	
CC(C)C(C/C=C1\CC(CO)(COC(=O)c2ccccc2)OC1=O)C(C)C (configuration not stated)	50.7	36.9	25.4	29.8	28.7	38.2	37.2	54.6	40.9	35.6		45.4	30.2	33.8	39.1	70.6	44.8	
O=C(NCCCCCCNC(=O)n1cc(F)c(=O)[nH]c1=O)NCCCOCCOCCCNC(=O)C(O)C(O)C(O)C(O)CO (configuration not stated)	> 2.5		> 2.5	> 2.5	> 2.5	> 2.5	> 2.5	> 2.5	> 2.5	> 2.5	> 2.5	> 2.5	> 2.5	> 2.5	> 2.5	> 2.5	> 2.5	
COC(=O)/C=C(\C)C(=O)N(C)c1ccccc1I	> 100		> 100	> 100	> 100			> 100	> 100	> 100	> 100	> 100	> 100	> 100	> 100	> 100	> 100	> 100
Cc1ccnc2[nH]c(-c3cccc(Cl)c3)cc(=O)c12	> 100			> 100	> 74.8	> 100	> 100	> 100	> 100	> 100		> 100	> 100	> 100		> 100	> 43	> 100
Cn1c(C(C#N)c2nc(Cl)ncc2Br)nc2ccccc21 (configuration not stated)	> 100	> 100	> 100	> 100	> 100	> 100	> 100	> 100		> 100	> 100	> 100	> 100	> 100	> 100	> 100		> 100
CC(C)[C@@H]1CC[C@@H](C)C[C@H]1OC(=O)/C=C1/C2C=CC(O2)C1C(=O)O[C@@H]1C[C@H](C)CC[C@H]1C(C)C (some centres not stated)	> 100		> 100	> 100	> 100	> 100	> 100	> 100	> 100	> 100	> 100	> 100	> 100	> 100	> 100	> 100	> 100	> 100
CCN(CC)CCCOC(=O)/C=C/c1c(C)[nH]c(=O)[nH]c1=O	> 412		> 625	> 625	> 625	> 394	> 625	> 625	> 625	> 394	> 625	> 99.1	> 625	> 625	> 625	> 625	> 625	
CCCCc1c(C(=O)OC(C)(C)C)cc(C#Cc2cc(C(=O)OC(C)(C)C)c(CCCC)c(C(=O)OC(C)(C)C)c2)cc1C(=O)OC(C)(C)C	> 100	> 100	> 100	> 100	> 100		> 100		> 100	> 100	> 100		> 100		> 100	> 100	> 100	> 100
CCC1C(c2cccc(OC)c2O)c2cc3c(cc2OC1N1CCCC1)OCO3 (configuration not stated)				> 100	46.3	37.5	45.3	84.6	> 100		34		43.4	58.8		71.3	21.9	
COc1ccccc1C1SCC(=O)N1c1ccc(-c2ccc(-n3c(-c4ccccc4)nc4ccccc4c3=O)cc2)cc1 (configuration not stated)	> 100	> 100	> 100	> 100	> 100	> 100	> 100	> 100	> 100		> 100		> 100	> 100	> 100	> 100	> 100	> 100
CCCCCCCCCCCCCCCCSCC(COC)COP(=O)([O-])OCC[N+](C)(C)C (configuration not stated)	19.1		3.96	28.4	15.6	12.8	4.77	17.4	26.7	15.3	8.48	15.5	29.5	17.7	4.37	28.8	3.56	
O=C(CC/C=C(/CS(=O)(=O)c1ccccc1)S(=O)(=O)c1ccccc1)c1ccccc1	> 100			> 100	> 100	> 100	> 100	> 100		> 100	> 100	> 100	> 100	> 100	> 100	> 100	> 100	
COC(=O)C(CCc1ccccc1I)C1=CCC2(CC1)OCCO2 (configuration not stated)	> 100		> 100	> 100	> 100	> 100	> 100	> 100	> 100	> 100	> 100	67.2	> 100	> 100	> 100	> 100	> 100	> 100
C=C1C[C@@H](O)C[C@@]2(C)C[C@@H]3OC(=O)C(=C)[C@@H]3C[C@H]12	36.8		3.02		53.4	10.8	28.8	21.5	24.8	31.4	34.5	20.3	14	18.1	39.9	15.9	14.2	
CC(=O)OCC1OC(n2cc(F)c(=O)[nH]c2=O)C(N)C(OC(C)=O)C1OC(C)=O (configuration not stated)	> 100		> 100	> 100	> 100	> 100	> 100	> 100	> 100	> 100	> 100	> 100		> 100	> 100	> 100	> 100	
COC(=O)C(C)(N=Cc1ccccc1)c1ccccc1 (configuration not stated)	> 100		> 100	> 100	> 100	> 100	> 100	> 100	> 100	> 100	> 100	> 100	> 100	> 100	> 100	> 100	> 100	> 100
O=C1CSc2nc3ccccc3n2/C=N\N1	> 100		> 100			> 100		> 100	> 100	> 100	> 100	> 100	> 100	> 100	> 100	> 100	> 100	> 100
COc1ccc(N2C(=Nc3ccccc3)SC(=N/S(=O)(=O)c3ccccc3)/C2=N\S(=O)(=O)c2ccccc2)cc1	52.4	54.2	41	61.2	98.5	48	27.3		40.8		50.8	28.2	33.9	> 100	35.4	73.1	42	
CC(C)SC(C)(NC(=O)C1C(C)(C)CCC1(C)C)C(=O)O (configuration not stated)	> 100		> 100	> 100	> 100			> 100	> 100		> 100		> 100	> 100	> 100		> 100	> 100
Nc1nc2c(c(=O)[nH]1)N(C=O)C(CNc1ccc(C(=O)N[C@@H](CCC(=O)O)C(=O)O)cc1)CN2 (some centres not stated)			> 125	> 125	> 125	> 125	> 125	> 125	> 125	> 125	> 125	> 125	> 125	> 125	> 125	> 125	> 125	
C/C(=N\NS(=O)(=O)c1ccccc1)c1ccccc1	> 100		> 100	> 100	> 100	> 100	> 100	> 100	> 100	> 100	> 100	> 100	> 100	> 100	> 100	> 100	> 100	
C=CCOCn1cnc2c(N)ncnc21	> 100		> 100	> 100	> 100	> 100	> 100	> 100	> 100	> 100	> 100		> 100	> 100	> 100	> 100	> 100	> 100
C=CC1ON(Cc2ccccc2)CCc2cc(OC)c(OC)cc21 (configuration not stated)	67.8	> 100	> 100	> 100	> 100	> 100	> 100	> 100	> 100		> 100		> 100	> 100	> 100	> 100	> 100	> 100
O=C(Nc1c[nH]c(=O)[nH]c1=O)C(Cl)Cl	> 100		> 100	> 100	> 100	> 100	> 100	> 100	> 100	> 100	> 100	> 100	> 100	> 100	> 100	> 100	> 100	> 100
O=C1O/C(=C(\Br)c2cccc3ccccc23)c2ccccc21	34.6		> 53.8	> 59.7	> 100	56.3	> 57.9	> 100		30.9	71.4	> 62.8	> 50.2	> 58.3	> 100	> 56.1	> 100	
Cc1cc(O)c2c(c1O)C(=O)C13C(=C2O)C(=O)C2C(O)C1C1C(O)C3C(=O)C3=C(O)c4c(O)cc(C)c(O)c4C(=O)C321 (configuration not stated)	0.253		0.112	1.84	0.526	0.406	2.06	1.46		7.24	< 0.0312	0.295	0.59	0.313	0.188	3.46	0.329	
